In the supplement of paper PMC10307832:

Tests used:
Assay in all cases: relative viability (nuclei count vs DMSO), 5 days (fraction); higher = more cells survive
HCC-78 = test system: HCC-78
Outline: (§1)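 Medians of duplicate plates are given as relative viability. That measure is the nuclei count in treated wells divided by the count in vehicle wells. Counts were taken on 4× images of lung cancer cell lines in 1536-well plates, 5 days after pin-tool dosing the day after seeding with one drug alone or a fixed anchor-drug dose plus five library-drug doses (not always all listed) in √10 steps.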

COR-L23 = test system: COR-L23
Outline: as §1

HCC-366 = test system: HCC-366
Outline: as §1

ChaGo-K-1 = test system: ChaGo-K-1
Outline: as §1

NCI-H650 = test system: NCI-H650
Outline: as §1

NCI-H2009 = test system: NCI-H2009
Outline: as §1

HCC-15 = test system: HCC-15
Outline: as §1

201T = test system: 201T
Outline: as §1

A-427 = test system: A-427
Outline: as §1

NCI-H460 = test system: NCI-H460
Outline: as §1

NCI-H2126 = test system: NCI-H2126
Outline: as §1

LCLC-103H = test system: LCLC-103H
Outline: as §1

NCI-H1734 = test system: NCI-H1734
Outline: as §1

SW 1573 = test system: SW 1573
Outline: as §1

NCI-H1993 = test system: NCI-H1993
Outline: as §1

LOU-NH91 = test system: LOU-NH91
Outline: as §1

HARA = test system: HARA
Outline: as §1

LCLC-97TM1 = test system: LCLC-97TM1
Outline: as §1

NCI-H441 = test system: NCI-H441
Outline: as §1

NCI-H1650 = test system: NCI-H1650
Outline: as §1

NCI-H2023 = test system: NCI-H2023
Outline: as §1

EBC-1 = test system: EBC-1
Outline: as §1

RERF-LC-KJ = test system: RERF-LC-KJ
Outline: as §1

HCC-44 = test system: HCC-44
Outline: as §1

CCCCCCCCCCCC1=C(O)C(=O)C=C(O)C1=O [Embelin] + C[C@@H](Oc1cc(-c2cnn(C3CCNCC3)c2)cnc1N)c1c(Cl)ccc(F)c1Cl [Crizotinib] (partner 1 µM) gave a relative viability (HCC-78; first compound 0.08 µM) of 0.344, a relative viability (HCC-78; first compound 0.8 µM) of 0.373 and a relative viability (HCC-78; first compound 2.53 µM) of 0.347. It also gave a relative viability (HCC-78; first compound 8 µM) of 0.321, a relative viability (COR-L23; first compound 0.08 µM) of 0.691 and a relative viability (COR-L23; first compound 0.8 µM) of 0.762. For the same compound, the relative viability (COR-L23; first compound 2.53 µM) was 0.701, the relative viability (COR-L23; first compound 8 µM) was 0.745 and the relative viability (HCC-366; first compound 0.08 µM) was 0.633. The relative viability (HCC-366; first compound 0.8 µM) was 0.572, the relative viability (HCC-366; first compound 2.53 µM) was 1.02 and the relative viability (HCC-366; first compound 8 µM) was 0.637. The relative viability (ChaGo-K-1; first compound 0.08 µM) was 1.13, the relative viability (ChaGo-K-1; first compound 0.8 µM) was 1.22 and the relative viability (ChaGo-K-1; first compound 2.53 µM) was 1.32. It also gave a relative viability (ChaGo-K-1; first compound 8 µM) of 1.24, a relative viability (NCI-H650; first compound 0.08 µM) of 0.772 and a relative viability (NCI-H650; first compound 0.8 µM) of 0.817. It also gave a relative viability (NCI-H650; first compound 2.53 µM) of 0.711, a relative viability (NCI-H650; first compound 8 µM) of 0.782 and a relative viability (NCI-H2009; first compound 0.08 µM) of 1.04. For the same compound, the relative viability (NCI-H2009; first compound 0.8 µM) was 1.12, the relative viability (NCI-H2009; first compound 2.53 µM) was 1.11 and the relative viability (NCI-H2009; first compound 8 µM) was 1.06. The relative viability (HCC-15; first compound 0.08 µM) was 0.779, the relative viability (HCC-15; first compound 0.8 µM) was 0.852 and the relative viability (HCC-15; first compound 2.53 µM) was 1. The relative viability (HCC-15; first compound 8 µM) was 0.907, the relative viability (201T; first compound 0.08 µM) was 1.02 and the relative viability (201T; first compound 0.8 µM) was 1.07. It also gave a relative viability (201T; first compound 2.53 µM) of 1.04, a relative viability (201T; first compound 8 µM) of 1.06 and a relative viability (A-427; first compound 0.08 µM) of 0.905. For the same compound, the relative viability (A-427; first compound 0.8 µM) was 0.862, the relative viability (A-427; first compound 2.53 µM) was 1.03 and the relative viability (A-427; first compound 8 µM) was 0.881. For the same compound, the relative viability (NCI-H460; first compound 0.08 µM) was 0.818, the relative viability (NCI-H460; first compound 0.8 µM) was 1.04 and the relative viability (NCI-H460; first compound 2.53 µM) was 1.02. It also gave a relative viability (NCI-H460; first compound 8 µM) of 0.876, a relative viability (NCI-H2126; first compound 0.08 µM) of 1.04 and a relative viability (NCI-H2126; first compound 0.8 µM) of 1.05. For the same compound, the relative viability (NCI-H2126; first compound 2.53 µM) was 1.19, the relative viability (NCI-H2126; first compound 8 µM) was 1.04 and the relative viability (LCLC-103H; first compound 0.08 µM) was 1.06. For the same compound, the relative viability (LCLC-103H; first compound 0.8 µM) was 1.01, the relative viability (LCLC-103H; first compound 2.53 µM) was 1.08 and the relative viability (LCLC-103H; first compound 8 µM) was 0.959. It also gave a relative viability (NCI-H1734; first compound 0.08 µM) of 0.71, a relative viability (NCI-H1734; first compound 0.8 µM) of 0.825 and a relative viability (NCI-H1734; first compound 2.53 µM) of 0.693. The relative viability (NCI-H1734; first compound 8 µM) was 0.747, the relative viability (SW 1573; first compound 0.08 µM) was 0.808 and the relative viability (SW 1573; first compound 0.8 µM) was 0.977. It also gave a relative viability (SW 1573; first compound 2.53 µM) of 0.84, a relative viability (SW 1573; first compound 8 µM) of 0.887 and a relative viability (NCI-H1993; first compound 0.08 µM) of 1. The relative viability (NCI-H1993; first compound 0.8 µM) was 0.844, the relative viability (NCI-H1993; first compound 2.53 µM) was 0.943 and the relative viability (NCI-H1993; first compound 8 µM) was 0.793. The relative viability (LOU-NH91; first compound 0.08 µM) was 0.764, the relative viability (LOU-NH91; first compound 0.8 µM) was 0.751 and the relative viability (LOU-NH91; first compound 2.53 µM) was 0.763. It also gave a relative viability (LOU-NH91; first compound 8 µM) of 0.741, a relative viability (HARA; first compound 0.08 µM) of 1.03 and a relative viability (HARA; first compound 0.8 µM) of 1.08. The relative viability (HARA; first compound 2.53 µM) was 1.12, the relative viability (HARA; first compound 8 µM) was 1.23 and the relative viability (LCLC-97TM1; first compound 0.8 µM) was 0.517. For the same compound, the relative viability (LCLC-97TM1; first compound 2.53 µM) was 0.358, the relative viability (LCLC-97TM1; first compound 8 µM) was 0.312 and the relative viability (NCI-H441; first compound 0.08 µM) was 0.749. The relative viability (NCI-H441; first compound 0.8 µM) was 0.971, the relative viability (NCI-H441; first compound 2.53 µM) was 0.788 and the relative viability (NCI-H441; first compound 8 µM) was 0.901. It also gave a relative viability (NCI-H1650; first compound 0.08 µM) of 0.954, a relative viability (NCI-H1650; first compound 0.8 µM) of 1.04 and a relative viability (NCI-H1650; first compound 2.53 µM) of 0.981. For the same compound, the relative viability (NCI-H1650; first compound 8 µM) was 1.16, the relative viability (NCI-H2023; first compound 0.08 µM) was 0.654 and the relative viability (NCI-H2023; first compound 0.8 µM) was 0.638. It also gave a relative viability (NCI-H2023; first compound 2.53 µM) of 0.801, a relative viability (NCI-H2023; first compound 8 µM) of 0.609 and a relative viability (EBC-1; first compound 0.08 µM) of 0.205. For the same compound, the relative viability (EBC-1; first compound 0.8 µM) was 0.229, the relative viability (EBC-1; first compound 2.53 µM) was 0.191 and the relative viability (EBC-1; first compound 8 µM) was 0.19. For the same compound, the relative viability (RERF-LC-KJ; first compound 0.08 µM) was 0.883, the relative viability (RERF-LC-KJ; first compound 0.8 µM) was 0.912 and the relative viability (RERF-LC-KJ; first compound 2.53 µM) was 0.906. The relative viability (RERF-LC-KJ; first compound 8 µM) was 0.937, the relative viability (HCC-44; first compound 0.08 µM) was 0.771 and the relative viability (HCC-44; first compound 0.8 µM) was 0.803. The relative viability (HCC-44; first compound 2.53 µM) was 0.826 and the relative viability (HCC-44; first compound 8 µM) was 0.829.
